These results are taken from patent US6124290A, “Polycyclic phthalazine compounds and their use” (Gruenenthal GmbH, priority 1996, dated 2000).

Values after ≈ are worked out from the molar mass of the structure shown. Where two headings read alike, the source gives them in different places.

Assay [1] concerns Enterococcus faecium 64/3. The assay is described as follows: MIC, micro-broth dilution test according to DIN 58 940 (Part 8). The format is cell-based. The following applies: for MIC: Enterococcus faecium. The protocol: (§1) The minimum inhibiting concentration (MIC) of the compounds was tested, in a micro-broth dilution test according to DIN 58 940 (Part 8), against the following bacterial strains: Staphylococcus aureus, strains 8325-4 (a sensitive Staphylococcus aureus strain which is representative of the species), NCTC 6571 (a sensitive international control strain), 108/83 (an "old" MRSA without quinolone-resistance), 134/94 (a "new" MRSA, with quinolone-resistance), Staphylococcus epidermidis CCM 2124 (a sensitive control strain), Enterococcus faecium 70/90 (a vancomycin-resistant strain) and 64/3 (a sensitive strain).
A general note: In broth dilution the organism is exposed to a series of concentrations in liquid medium.

The subject of assay [2] is Staphylococcus epidermidis CCM 2124. The assay is described as above. The format is cell-based. The following applies: for MIC: Staphylococcus epidermidis. As for the experimental part:
as §1, with “strain). The known substances vancomycin, teicoplanin and ciprofloxacin were used for comparison in the tests, even though they are structurally different.” for “strain).”

For assay [3], the system named is Staphylococcus aureus 134/94. The assay is described as above. The format is cell-based. To be noted: for MIC: Staphylococcus aureus, read-out: MIC, Staphylococcus aureus 134/94. As for the experimental part: as §1, with “strain). The known substances vancomycin, teicoplanin and ciprofloxacin were used for comparison in the tests, even though they are structurally different.” for “strain).”

Assay [4] concerns Staphylococcus aureus NCTC 6571. The description is as above. To be noted: NCTC6571, sensitive international control strain. The format is cell-based. As for the experimental part:
as §1, with “strain). The known substances vancomycin, teicoplanin and ciprofloxacin were used for comparison in the tests, even though they are structurally different.” for “strain).”

The subject of assay [5] is Staphylococcus aureus 108/83. Described as above. The following applies: for MIC: Staphylococcus aureus, read-out: MIC, Staphylococcus aureus 108/83. The format is cell-based. As for the experimental part:
as §1, with “strain). The known substances vancomycin, teicoplanin and ciprofloxacin were used for comparison in the tests, even though they are structurally different.” for “strain).”

In assay [6] the test system is Staphylococcus aureus 8325-4. Described as above. The format is cell-based. As for the experimental part:
as §1, with “strain). The known substances vancomycin, teicoplanin and ciprofloxacin were used for comparison in the tests, even though they are structurally different.” for “strain).”

Assay [7] concerns Enterococcus faecium 70/90. The description is as above. The format is cell-based. To be noted: for MIC: Enterococcus faecium. As for the experimental part: as §1, with “strain). The known substances vancomycin, teicoplanin and ciprofloxacin were used for comparison in the tests, even though they are structurally different.” for “strain).”
The conditions of assay [8]: background section; cited from earlier work.
Setting [9] is: 64/3, sensitive strain, read-out: MIC, Enterococcus faecium 64/3.
The mark [10] stands for this setting: CCM2124, sensitive control strain, read-out: MIC, Staphylococcus epidermidis CCM 2124.
The mark [11] stands for this setting: "new" MRSA, with quinolone-resistance.
[12] abbreviates: "old" MRSA, without quinolone-resistance.
Where [13] appears, read: 83254, sensitive Staphylococcus aureus strain, representative of the species, read-out: MIC, Staphylococcus aureus 8325-4.
[14] abbreviates: 70/90, vancomycin-resistant strain, read-out: MIC, Enterococcus faecium 70/90.
Where [15] appears, read: CCM2124, read-out: MIC, Staphylococcus epidermidis CCM 2124.
Where [16] appears, read: Staphylococcus aureus, 83254, read-out: MIC, Staphylococcus aureus 8325-4.

As to `COc1c2c(c(O)c3c1C(=O)c1c(cc(O)c(C)c1O)C3=O)-c1c(cc3cnn(-c4ccc(C(=O)O)cc4)c(=O)c3c1O)CC2` [Substance 1], the MIC in assay [1] (setting [9]) is 500 µg/mL (≈ 824 µM); in assay [2] (setting [10]), under 125 µg/mL; in assay [3] (setting [11]), 500 µg/mL (≈ 824 µM); in assay [4], under 125 µg/mL; in assay [5] (setting [12]), 250 µg/mL (≈ 412 µM); in assay [6] (setting [13]), 500 µg/mL (≈ 824 µM). Also, in assay [7] (setting [14]), the MIC was found to be 500 µg/mL (≈ 824 µM).
Take teicoplanin: in assay [1] (sensitive strain), the “MIC, Enterococcus faecium 64/3” value was under 0.25 mg/mL. Also, in assay [2] (sensitive control strain), the “MIC, Staphylococcus epidermidis CCM 2124” value stood at 0.5 mg/mL. Besides, the “MIC, Staphylococcus aureus 134/94” value in assay [3] (setting [11]) worked out at 0.5 mg/mL. In assay [5] (setting [12]), the “MIC, Staphylococcus aureus 108/83” value turned out to be 0.5 mg/mL. Moreover, the “MIC, Staphylococcus aureus 8325-4” value in assay [6] (sensitive Staphylococcus aureus strain, representative of the species) was found to be 0.5 mg/mL. Moreover, the “MIC, Enterococcus faecium 70/90” value in assay [7] (vancomycin-resistant strain) was 256 mg/mL.
For the compound `CN[C@H](CC(C)C)C(=O)N[C@H]1C(=O)N[C@@H](CC(N)=O)C(=O)N[C@H]2C(=O)N[C@H]3C(=O)N[C@H](C(=O)N[C@H](C(=O)O)c4cc(O)cc(O)c4-c4cc3ccc4O)[C@H](O)c3ccc(c(Cl)c3)Oc3cc2cc(c3O[C@@H]2O[C@H](CO)[C@@H](O)[C@H](O)[C@H]2O[C@H]2C[C@](C)(N)[C@H](O)[C@H](C)O2)Oc2ccc(cc2Cl)[C@H]1O` [vancomycin], the MIC in assay [1] (64/3, read-out: MIC, Enterococcus faecium 64/3) is under 250 µg/mL; in assay [2] (setting [15]) it was 500 µg/mL (≈ 345 µM); in assay [3] (MRSA) it was 500 µg/mL (≈ 345 µM); in assay [5] (MRSA) it was 500 µg/mL (≈ 345 µM); in assay [6] (setting [16]) it was 500 µg/mL (≈ 345 µM).
Take `CCC(C(=O)O)n1ncc2cc3c(c(O)c2c1=O)-c1c(O)c2c(c(OC)c1CC3)C(=O)c1c(cc(O)c(C)c1O)C2=O` (racemic) [Substance 4]: the figures for the MIC in assay [3] (setting [11]), in assay [5] (setting [12]) and in assay [6] (setting [13]) were 16 µg/mL (≈ 27.9 µM), 32 µg/mL (≈ 55.9 µM) and 63 µg/mL (≈ 110 µM), respectively.
For the compound `COc1c2c(c(O)c3c1C(=O)c1c(cc(O)c(C)c1O)C3=O)-c1c(cc3cnn(CC(=O)O)c(=O)c3c1O)CC2` [Substance 3, 10,12, 15,16-tetrahydroxy-8-methoxy-2-carboxynmethyl-11-methyl-1,9,14-trioxo-1,2,6,7,9,14-hexahydro-naphthaceno-[1,2-g]-phthalazine], the MIC in assay [1] (setting [9]) was 500 µg/mL (≈ 918 µM); in assay [2] (setting [10]), under 125 µg/mL; in assay [3] (setting [11]), 250 µg/mL (≈ 459 µM); in assay [4], under 125 µg/mL; in assay [5] (setting [12]), 63 µg/mL (≈ 116 µM); in assay [6] (setting [13]) it was 63 µg/mL (≈ 116 µM). Also, the MIC in assay [7] (setting [14]) came to 2000 µg/mL (≈ 3670 µM).
With `COc1c2c(c(O)c3c1C(=O)c1c(cc(O)c(C)c1O)C3=O)-c1c(cc3c(c1O)C(=O)OC3O)CC2` (stereo not shown) [Madurahydroxylactone, 3,9,11,14,15-pentahydroxy-10-methyl-7-methoxy-1,8,13-trioxo-1,3,5,6,8,13-hexahydro-naphthaceno-[1,2-f]-benzoisofurane], the biological efficacy entry in assay [8] was “unsatisfactory biological efficacy”.
Take `O=C(O)c1cn(C2CC2)c2cc(N3CCNCC3)c(F)cc2c1=O` [ciprofloxacin]: the MIC is 250 µg/mL (≈ 754 µM) in assay [2] (setting [15]); 16000 µg/mL (≈ 48300 µM) in assay [3] (MRSA); 250 µg/mL (≈ 754 µM) in assay [5] (MRSA); 250 µg/mL (≈ 754 µM) in assay [6] (setting [16]); 1000 µg/mL (≈ 3020 µM) in assay [7] (70/90, read-out: MIC, Enterococcus faecium 70/90).
